Assay [1] deals with T1, human neutrophil elastase (HNE) (Homo sapiens, UniProt P08246).
T1 construct: purchased SERVA Electrophoresis GmbH, Heidelberg, Germany #20927.01
T1 sequence (P08246 30-267): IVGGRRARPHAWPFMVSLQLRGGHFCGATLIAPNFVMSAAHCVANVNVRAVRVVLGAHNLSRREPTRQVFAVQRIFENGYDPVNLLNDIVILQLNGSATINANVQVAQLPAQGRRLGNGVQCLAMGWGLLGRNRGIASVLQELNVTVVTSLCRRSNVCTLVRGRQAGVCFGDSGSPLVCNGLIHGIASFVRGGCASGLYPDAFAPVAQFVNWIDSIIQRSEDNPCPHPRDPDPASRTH
Kind of assay: In vitro inhibition of HNE using a fluorogenic peptide substrate. The note with it: substrate MeOSuc-Ala-Ala-Pro-Val-AMC, 384 MTP format. Format: biochemical. How it is done:
I. In vitro Enzyme Assays of Human Neutrophil Elastase (HNE)
assay buffer: 0.1 M HEPES-NaOH buffer pH 7.4, 0.5 M NaCl, 0.1% (w/v) bovine serum albumin;
suitable concentration (see below) of HNE (18 U/mg lyophil., #20927.01, SERVA Electrophoresis GmbH, Heidelberg, Germany) in assay buffer;
suitable concentration (see below) of substrate in assay buffer;
suitable concentration of test compounds diluted with assay buffer from a 10 mM stock solution in DMSO.
In vitro Inhibition of HNE Using a Fluorogenic Peptide Substrate (Continuous Read-out Signal, 384 MTP Assay Format):
In this protocol, the elastase substrate MeOSuc-Ala-Ala-Pro-Val-AMC (#324740, Calbiochem-Novabiochem Corporation, Merck KGaA, Darmstadt, Germany) is used. The test solution is prepared by mixing 10 μl of test compound dilution, 20 μl of HNE enzyme dilution (final concentration 8-0.4 μU/ml, routinely 2.1 μU/ml) and 20 μl of substrate dilution (final concentration 1 mM-1 μM, routinely 20 μM), respectively. The solution is incubated for 0-2 hrs at 37° C. (routinely one hour). The fluorescence of the liberated AMC due to the enzymatic reaction is measured at 37° C. (TECAN spectra fluor plus plate reader). The rate of increase of the fluorescence (ex. 395 nm, em. 460 nm) is proportional to elastase activity. IC50 values are determined by RFU-versus-[I] plots. Km and Km(app.) values are determined by Lineweaver-Burk plots and converted to Ki values by Dixon plots.

Assay [2] concerns human polymorphonuclear cells (PMNs). The assay is described as follows: In vitro PMN elastolysis assay. The format is cell-based. The note with it: mean±s.e.m. The protocol:
In vitro PMN Elastolysis Assay:
This assay is used to determine the elastolytic potential of human polymorphonuclear cells (PMNs) and assess the proportion of degradation due to neutrophil elastase [cf. Z. W. She et al., Am. J Respir. Cell. Mol. Biol. 9, 386-392 (1993)].
Tritiated elastin, in suspension, is coated on to a 96 well plate at 10 μg per well. Test and reference [ZD-0892 (J. Med. Chem. 40, 1876-1885, 3173-3181 (1997), WO 95/21855) and α1 protease inhibitor (α1PI)] compounds are added to the wells at the appropriate concentrations. Human PMNs are separated from peripheral venous blood of healthy donors and resuspended in culture media. The neutrophils are added to the coated wells at concentrations ranging between 1×10^6 to 1×10^5 cells per well. Porcine pancreatic elastase (1.3 μM) is used as a positive control for the assay, and α1PI (1.2 μM) is used as the positive inhibitor of neutrophil elastase. The cellular, control is PMNs without compound at each appropriate cell density. The cells plus compounds are incubated in a humidified incubator at 37° C. for 4 hours. The plates are centrifuged to allow the harvest of cell supernatant only. The supernatant is transferred in 75 μl volumes to corresponding wells of a 96 well Lumaplate™ (solid scintillant containing plates). The plates are dried until no liquid is visible in the wells and read in a beta counter for 3 minutes per well. […]

In the case of `COCCOCCCNC(=O)C1C(=O)N(c2cccc(C(F)(F)F)c2)C(C)=C(C(C)=O)C1c1ccc(C#N)cc1` (centres unmarked) [Example 61], the IC50 – broadly, the concentration at which inhibition is half-maximal – in assay [1] is 50 nM.

`COc1ccc(CN(C)C(=O)C2C(=O)N(c3cccc(C(F)(F)F)c3)C(C)=C(C(C)=O)C2c2ccc(C#N)cc2)cc1` (centres unmarked) [Example 19] returned an IC50 in assay [1] of 40 nM.

In the case of `CC(=O)C1=C(C)N(c2cccc(C(F)(F)F)c2)C(=O)C(C(=O)N2CCN(CCN3CCOCC3)CC2)C1c1ccc(C#N)cc1` (centres unmarked) [Example 45], half-maximal inhibition in assay [1] (IC50) required 70 nM.

In turn, `COc1ccc(C(=O)N[C@H](C(=O)N2CCC[C@H]2C(=O)N[C@H](C(=O)C(F)(F)F)C(C)C)C(C)C)cc1` [ZD-0892] gave an IC50 in assay [2] (n=2 different donors at 3.6×10^5 cells per well) of 45.5 ± 7.75 nM.

Take “α1PI: α1 protease inhibitor, used as the positive inhibitor of neutrophil elastase”: the “inhibition of 3H-elastin elastolysis” value in assay [2] (at 1.2 μM, n=3 different donors at 3.6×10^5 cells per well) turned out to be 83.46±3.97%.

With `CC(=O)C1=C(C)N(c2cccc(C(F)(F)F)c2)C(=O)C(C(=O)N2CCN3CCCC3C2)C1c1ccc(C#N)cc1` (centres unmarked) [Example 34], the IC50 in assay [1] came to 60 nM.

Regarding `CCOC(=O)N1CCN(C(=O)C2C(=O)N(c3cccc(C(F)(F)F)c3)C(C)=C(C(C)=O)C2c2ccc(C#N)cc2)CC1` (centres unmarked) [Example 54], in assay [1], half-maximal inhibition (IC50) was put at 60 nM.

On to `CC(=O)C1=C(C)N(c2cccc(C(F)(F)F)c2)C(=O)C(C(=O)N(C)c2cccc(C)c2)C1c1ccc(C#N)cc1` (centres unmarked) [Example 27], for which the IC50 in assay [1] is 30 nM.

The values above are taken from patent US8097629B2, “Dihydropyridinone derivatives” (Bayer Pharma Aktiengesellschaft, priority 2004, dated 2012).
